Common to all, as to assay: Minimum inhibitory concentration (MIC), serial dilution technique
Common to all, as to format: cell-based

One assay relates to P. aeruginosa E-2. The settings on record: Pseudomonas aeruginosa, E2, 10^6 CFU/ml, 35° C., 18 to 20 hours. On the procedure: (§1) Antibacterial activities of the following typical compounds A through E of the present invention represented by formula (I) upon various bacteria were determined by measuring the minimum inhibitory concentrations (MIC) in accordance with the known serial dilution technique. MIC was measured by inoculating 10^6 CFU/ml of each test strain on a Sensitivity Plate Medium N (Nissui Pharmaceutical Co., Ltd.), incubating the plates at 35° C. for 18 to 20 hours and then evaluating the results.

A further assay deals with S. epidermidis ATCC14990. The settings on record: Staphylococcus epidermidis, 10^6 CFU/ml, 35° C., 18 to 20 hours. On the procedure: as §1
In the next assay the test system is E. cloacae G-0008. The settings on record: Enterobacter cloacae, G0008, 10^6 CFU/ml, 35° C., 18 to 20 hours. On the procedure:
as §1

The next assay relates to E. coli NIHJ JC-2. The settings on record: Escherichia coli, NIHJJC2, 10^6 CFU/ml, 35° C., 18 to 20 hours. On the procedure:
as §1

A further assay deals with S. marcescens No. 1. The settings on record: Serratia marcescens, 10^6 CFU/ml, 35° C., 18 to 20 hours. On the procedure:
as §1

For a further assay, the system named is E. hirae ATCC8043. The settings on record: Enterococcus hirae, 10^6 CFU/ml, 35° C., 18 to 20 hours. On the procedure: as §1
The subject of the next assay is K. pneumoniae PCI602. The settings on record: Klebsiella pneumoniae, 10^6 CFU/ml, 35° C., 18 to 20 hours. On the procedure:
as §1

A further assay has as its system P. vulgaris GN76. The settings on record: Proteus vulgaris, 10^6 CFU/ml, 35° C., 18 to 20 hours. On the procedure: as §1
The subject of another assay is C. freundii GN346/16. The settings on record: Citrobacter freundii, 10^6 CFU/ml, 35° C., 18 to 20 hours. On the procedure:
as §1

The next assay has as its system M. morganii 1510/S-1. The settings on record: Morganella morganii, 1510/S1, 10^6 CFU/ml, 35° C., 18 to 20 hours. On the procedure:
as §1

The test system of the next assay is S. aureus 209P JC-1. The settings on record: Staphylococcus aureus, 10^6 CFU/ml, 35° C., 18 to 20 hours. On the procedure:
as §1

In brackets after ≈: the same amount, converted by molar mass.

In general, MIC refers to the smallest concentration in the dilution series that meets the test's criterion for growth inhibition. A high value points to a less susceptible organism.

For `CO/N=C(\C(=O)NC1C(=O)N2C(C(=O)[O-])=C(CSc3nc4c[n+](C)ccc4s3)CSC12)c1csc(N)n1` (stereo not shown) [A, 7-{(Z)-2-(2-aminothiazol-4-yl)-2-methoxyiminoacetamido}-3-(5-methylthiazolo[4,5-c]pyridinium-2-yl)thiomethyl-3-cephem-4-carboxylate], the MIC with P. aeruginosa E-2 was determined as 50 mg/L (≈ 86.6 µM); in the assay with S. epidermidis ATCC14990 it was 0.2 mg/L (≈ 0.346 µM); in the assay with E. cloacae G-0008, 0.05 mg/L (≈ 0.0866 µM); against E. coli NIHJ JC-2 it was 0.05 mg/L (≈ 0.0866 µM); against S. marcescens No. 1, 0.05 mg/L (≈ 0.0866 µM); against E. hirae ATCC8043, 1.56 mg/L (≈ 2.7 µM). In addition, the minimum inhibitory concentration (MIC) is 0.05 mg/L (≈ 0.0866 µM) against K. pneumoniae PCI602; 0.39 mg/L (≈ 0.675 µM) against P. vulgaris GN76; 0.1 mg/L (≈ 0.173 µM) against C. freundii GN346/16; less than 0.025 mg/L in the assay on M. morganii 1510/S-1; 0.2 mg/L (≈ 0.346 µM) against S. aureus 209P JC-1.
`C[n+]1ccc2sc(SCC3=C(C(=O)[O-])N4C(=O)C(NC(=O)/C(=N\OCC(=O)O)c5csc(N)n5)C4SC3)nc2c1` (stereo not shown) [C, 7-{(Z)-2-(2-aminothiazol-4-yl)-2-carboxymethoxyiminoacetamido}-3-(5-methylthiazolo[4,5-c]pyridinium-2-yl)thiomethyl-3-cephem-4-carboxylate]: the MIC against P. aeruginosa E-2 is 12.5 mg/L (≈ 20.1 µM); with S. epidermidis ATCC14990, 3.13 mg/L (≈ 5.03 µM); in the assay with E. cloacae G-0008, 0.05 mg/L (≈ 0.0804 µM); against E. coli NIHJ JC-2, 0.05 mg/L (≈ 0.0804 µM); in the assay with S. marcescens No. 1 it was less than 0.025 mg/L; in the assay on E. hirae ATCC8043, 100 mg/L (≈ 161 µM). Further, the minimum inhibitory concentration (MIC) against K. pneumoniae PCI602 is less than 0.025 mg/L; against P. vulgaris GN76 it was less than 0.025 mg/L; against C. freundii GN346/16, 0.2 mg/L (≈ 0.322 µM); in the assay on M. morganii 1510/S-1, less than 0.025 mg/L; in the assay with S. aureus 209P JC-1 it was 3.13 mg/L (≈ 5.03 µM).
For `C[n+]1ccc2sc(SCC3=C(C(=O)[O-])N4C(=O)C(NC(=O)/C(=N\OC(C)(C)C(=O)O)c5csc(N)n5)C4SC3)nc2c1` (stereo not shown) [D, 7-{(Z)-2-(2-aminothiazol-4-yl)-2-(1-carboxy-1-methylethoxyimino)acetamido}-3-(5-methylthiazolo[4,5-c]pyridinium-2-yl)thiomethyl-3-cephem-4-carboxylate], the MIC is 3.13 mg/L (≈ 4.82 µM) with P. aeruginosa E-2; 3.13 mg/L (≈ 4.82 µM) in the assay with S. epidermidis ATCC14990; 0.2 mg/L (≈ 0.308 µM) against E. cloacae G-0008; 0.2 mg/L (≈ 0.308 µM) in the assay with E. coli NIHJ JC-2; 0.05 mg/L (≈ 0.077 µM) in the assay on S. marcescens No. 1; more than 100 mg/L against E. hirae ATCC8043. The MIC was 0.2 mg/L (≈ 0.308 µM) against K. pneumoniae PCI602; 0.1 mg/L (≈ 0.154 µM) with P. vulgaris GN76; 0.39 mg/L (≈ 0.6 µM) against C. freundii GN346/16; 0.05 mg/L (≈ 0.077 µM) against M. morganii 1510/S-1; 3.13 mg/L (≈ 4.82 µM) in the assay on S. aureus 209P JC-1.
`C[C@H](O/N=C(\C(=O)NC1C(=O)N2C(C(=O)[O-])=C(CSc3nc4c[n+](C)ccc4s3)CSC12)c1csc(N)n1)C(=O)O` (stereo partly drawn) [E, 7-[(Z)-2-(2-aminothiazol-4-yl)-2-{(S)-1-carboxyethoxyimino}acetamido]-3-(5-methylthiazolo[4,5-c]pyridinium-2-yl)thiomethyl-3-cephem-4-carboxylate]: the minimal inhibitory concentration (MIC) is 1.56 mg/L (≈ 2.45 µM) in the assay on P. aeruginosa E-2; 1.56 mg/L (≈ 2.45 µM) against S. epidermidis ATCC14990; 0.2 mg/L (≈ 0.315 µM) in the assay with E. cloacae G-0008; 0.2 mg/L (≈ 0.315 µM) against E. coli NIHJ JC-2; 0.05 mg/L (≈ 0.0786 µM) in the assay with S. marcescens No. 1; more than 100 mg/L against E. hirae ATCC8043. In addition, the MIC is 0.05 mg/L (≈ 0.0786 µM) with K. pneumoniae PCI602; less than 0.025 mg/L against P. vulgaris GN76; 0.39 mg/L (≈ 0.613 µM) against C. freundii GN346/16; 0.05 mg/L (≈ 0.0786 µM) against M. morganii 1510/S-1; 1.56 mg/L (≈ 2.45 µM) against S. aureus 209P JC-1.
Regarding `CO/N=C(\C(=O)NC1C(=O)N2C(C(=O)[O-])=C(CSc3nc4c(ccc[n+]4C)s3)CSC12)c1csc(N)n1` (stereo not shown) [B, 7-{(Z)-2-(2-aminothiazol-4-yl)-2-methoxyiminoacetamido}-3-(4-methylthiazolo[4,5-b]pyridinium-2-yl)thiomethyl-3-cephem-4-carboxylate], the minimum inhibitory concentration (MIC) against P. aeruginosa E-2 was determined as 25 mg/L (≈ 43.3 µM); in the assay on S. epidermidis ATCC14990, 0.2 mg/L (≈ 0.346 µM); against E. cloacae G-0008, 0.2 mg/L (≈ 0.346 µM); with E. coli NIHJ JC-2, 0.1 mg/L (≈ 0.173 µM); in the assay on S. marcescens No. 1, 0.2 mg/L (≈ 0.346 µM); with E. hirae ATCC8043, 50 mg/L (≈ 86.6 µM). The minimal inhibitory concentration (MIC) against K. pneumoniae PCI602 was found to be 0.05 mg/L (≈ 0.0866 µM); with P. vulgaris GN76, 0.2 mg/L (≈ 0.346 µM); in the assay on C. freundii GN346/16 it was 0.1 mg/L (≈ 0.173 µM); in the assay with M. morganii 1510/S-1, 0.1 mg/L (≈ 0.173 µM); in the assay with S. aureus 209P JC-1, 0.2 mg/L (≈ 0.346 µM).
